Data published in US8192962B2, “Processes for detecting toxic substances” (Daikin Industries, Ltd., priority 2001, dated 2012).

System: Genes belonging to other category
Assay: DNA chip mRNA expression in yeast, genes belonging to other category (Table 9)
Assay type: cell-based, Saccharomyces cerevisiae S288C
Outline: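 Untreated cultures served as reference for log-phase S288C yeast given a growth-inhibiting, non-lethal toxicant dose for 2 h at 25° C. in YPD. Gene expression was measured on a whole-genome DNA chip from Cy3/Cy5-labeled cDNA.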

Oc1cc(Cl)c(Cl)cc1Cl [(6), 2,4,5-trichlorophenol]
The level of expressed mRNA in the presence of chemical substance/The level of expressed mRNA in the absence of chemical substance (yeast gene YAR010C): 2.3 | The level of expressed mRNA in the presence of chemical substance/The level of expressed mRNA in the absence of chemical substance (yeast gene YBL005W-A): 1.2 | The level of expressed mRNA in the presence of chemical substance/The level of expressed mRNA in the absence of chemical substance (yeast gene YBL041W): 1.7 | The level of expressed mRNA in the presence of chemical substance/The level of expressed mRNA in the absence of chemical substance (yeast gene YBL043W): 26.9 | The level of expressed mRNA in the presence of chemical substance/The level of expressed mRNA in the absence of chemical substance (yeast gene YBL078C): 2.4 | The level of expressed mRNA in the presence of chemical substance/The level of expressed mRNA in the absence of chemical substance (yeast gene YBL101W-A): 1.4 | The level of expressed mRNA in the presence of chemical substance/The level of expressed mRNA in the absence of chemical substance (yeast gene YBR170C): 1.4 | The level of expressed mRNA in the presence of chemical substance/The level of expressed mRNA in the absence of chemical substance (yeast gene YBR173C): 1.3 | The level of expressed mRNA in the presence of chemical substance/The level of expressed mRNA in the absence of chemical substance (yeast gene YBR212W): 1.4 | The level of expressed mRNA in the presence of chemical substance/The level of expressed mRNA in the absence of chemical substance (yeast gene YBR214W): 0.8 | The level of expressed mRNA in the presence of chemical substance/The level of expressed mRNA in the absence of chemical substance (yeast gene YCL020W): 1.0 | The level of expressed mRNA in the presence of chemical substance/The level of expressed mRNA in the absence of chemical substance (yeast gene YCL027W): 1.3 | The level of expressed mRNA in the presence of chemical substance/The level of expressed mRNA in the absence of chemical substance (yeast gene YCR004C): 1.8 | The level of expressed mRNA in the presence of chemical substance/The level of expressed mRNA in the absence of chemical substance (yeast gene YCR069W): 1.4 | The level of expressed mRNA in the presence of chemical substance/The level of expressed mRNA in the absence of chemical substance (yeast gene YCR071C): 2.5 | The level of expressed mRNA in the presence of chemical substance/The level of expressed mRNA in the absence of chemical substance (yeast gene YCR088W): 2.0 | The level of expressed mRNA in the presence of chemical substance/The level of expressed mRNA in the absence of chemical substance (yeast gene YCR106W): 1.4 | The level of expressed mRNA in the presence of chemical substance/The level of expressed mRNA in the absence of chemical substance (yeast gene YDL008W): 2.7 | The level of expressed mRNA in the presence of chemical substance/The level of expressed mRNA in the absence of chemical substance (yeast gene YDL018C): 1.4 | The level of expressed mRNA in the presence of chemical substance/The level of expressed mRNA in the absence of chemical substance (yeast gene YDL143W): 1.0 | The level of expressed mRNA in the presence of chemical substance/The level of expressed mRNA in the absence of chemical substance (yeast gene YDL220C): 1.8 | The level of expressed mRNA in the presence of chemical substance/The level of expressed mRNA in the absence of chemical substance (yeast gene YDL230W): 0.9 | The level of expressed mRNA in the presence of chemical substance/The level of expressed mRNA in the absence of chemical substance (yeast gene YDL238C): 2.1 | The level of expressed mRNA in the presence of chemical substance/The level of expressed mRNA in the absence of chemical substance (yeast gene YDR055W): 3.9 | The level of expressed mRNA in the presence of chemical substance/The level of expressed mRNA in the absence of chemical substance (yeast gene YDR084C): 2.1 | The level of expressed mRNA in the presence of chemical substance/The level of expressed mRNA in the absence of chemical substance (yeast gene YDR085C): 2.1 | The level of expressed mRNA in the presence of chemical substance/The level of expressed mRNA in the absence of chemical substance (yeast gene YDR104C): 1.7 | The level of expressed mRNA in the presence of chemical substance/The level of expressed mRNA in the absence of chemical substance (yeast gene YDR115W): 2.3 | The level of expressed mRNA in the presence of chemical substance/The level of expressed mRNA in the absence of chemical substance (yeast gene YDR212W): 1.4 | The level of expressed mRNA in the presence of chemical substance/The level of expressed mRNA in the absence of chemical substance (yeast gene YDR259C): 0.5 | The level of expressed mRNA in the presence of chemical substance/The level of expressed mRNA in the absence of chemical substance (yeast gene YDR264C): 1.8 | The level of expressed mRNA in the presence of chemical substance/The level of expressed mRNA in the absence of chemical substance (yeast gene YDR315C): 9.4 | The level of expressed mRNA in the presence of chemical substance/The level of expressed mRNA in the absence of chemical substance (yeast gene YDR358W): 2.5 | The level of expressed mRNA in the presence of chemical substance/The level of expressed mRNA in the absence of chemical substance (yeast gene YDR388W): 1.0 | The level of expressed mRNA in the presence of chemical substance/The level of expressed mRNA in the absence of chemical substance (yeast gene YDR403W): 1.1 | The level of expressed mRNA in the presence of chemical substance/The level of expressed mRNA in the absence of chemical substance (yeast gene YDR432W): 0.6 | The level of expressed mRNA in the presence of chemical substance/The level of expressed mRNA in the absence of chemical substance (yeast gene YDR481C): 0.9 | The level of expressed mRNA in the presence of chemical substance/The level of expressed mRNA in the absence of chemical substance (yeast gene YDR510W): 1.0 | The level of expressed mRNA in the presence of chemical substance/The level of expressed mRNA in the absence of chemical substance (yeast gene YEL042W): 0.5 | The level of expressed mRNA in the presence of chemical substance/The level of expressed mRNA in the absence of chemical substance (yeast gene YEL066W): 2.2 | The level of expressed mRNA in the presence of chemical substance/The level of expressed mRNA in the absence of chemical substance (yeast gene YER021W): 1.1 | The level of expressed mRNA in the presence of chemical substance/The level of expressed mRNA in the absence of chemical substance (yeast gene YER039C): 1.6 | The level of expressed mRNA in the presence of chemical substance/The level of expressed mRNA in the absence of chemical substance (yeast gene YER078C): 1.4 | The level of expressed mRNA in the presence of chemical substance/The level of expressed mRNA in the absence of chemical substance (yeast gene YER094C): 1.1 | The level of expressed mRNA in the presence of chemical substance/The level of expressed mRNA in the absence of chemical substance (yeast gene YER107C): 2.5 | The level of expressed mRNA in the presence of chemical substance/The level of expressed mRNA in the absence of chemical substance (yeast gene YER130C): 2.7 | The level of expressed mRNA in the presence of chemical substance/The level of expressed mRNA in the absence of chemical substance (yeast gene YFL022C): 0.9 | The level of expressed mRNA in the presence of chemical substance/The level of expressed mRNA in the absence of chemical substance (yeast gene YFL028C): 1.7 | The level of expressed mRNA in the presence of chemical substance/The level of expressed mRNA in the absence of chemical substance (yeast gene YFL038C): 1.3 | The level of expressed mRNA in the presence of chemical substance/The level of expressed mRNA in the absence of chemical substance (yeast gene YFL043C): 1.8 | The level of expressed mRNA in the presence of chemical substance/The level of expressed mRNA in the absence of chemical substance (yeast gene YFR051C): 0.2 | The level of expressed mRNA in the presence of chemical substance/The level of expressed mRNA in the absence of chemical substance (yeast gene YGL056C): 0.4 | The level of expressed mRNA in the presence of chemical substance/The level of expressed mRNA in the absence of chemical substance (yeast gene YGL093W): 1.0 | The level of expressed mRNA in the presence of chemical substance/The level of expressed mRNA in the absence of chemical substance (yeast gene YGL150C): 1.1 | The level of expressed mRNA in the presence of chemical substance/The level of expressed mRNA in the absence of chemical substance (yeast gene YGL158W): 0.4 | The level of expressed mRNA in the presence of chemical substance/The level of expressed mRNA in the absence of chemical substance (yeast gene YGL166W): 1.0 | The level of expressed mRNA in the presence of chemical substance/The level of expressed mRNA in the absence of chemical substance (yeast gene YGL229C): 2.2 | The level of expressed mRNA in the presence of chemical substance/The level of expressed mRNA in the absence of chemical substance (yeast gene YGR136W): 1.1 | The level of expressed mRNA in the presence of chemical substance/The level of expressed mRNA in the absence of chemical substance (yeast gene YGR189C): 0.5 | The level of expressed mRNA in the presence of chemical substance/The level of expressed mRNA in the absence of chemical substance (yeast gene YGR213C): 4.1 | The level of expressed mRNA in the presence of chemical substance/The level of expressed mRNA in the absence of chemical substance (yeast gene YGR253C): 1.4 | The level of expressed mRNA in the presence of chemical substance/The level of expressed mRNA in the absence of chemical substance (yeast gene YGR257C): 2.1 | The level of expressed mRNA in the presence of chemical substance/The level of expressed mRNA in the absence of chemical substance (yeast gene YHR004C): 2.0 | The level of expressed mRNA in the presence of chemical substance/The level of expressed mRNA in the absence of chemical substance (yeast gene YHR027C): 0.4 | The level of expressed mRNA in the presence of chemical substance/The level of expressed mRNA in the absence of chemical substance (yeast gene YHR028C): 0.9 | The level of expressed mRNA in the presence of chemical substance/The level of expressed mRNA in the absence of chemical substance (yeast gene YHR071W): 2.0 | The level of expressed mRNA in the presence of chemical substance/The level of expressed mRNA in the absence of chemical substance (yeast gene YHR082C): 0.8 | The level of expressed mRNA in the presence of chemical substance/The level of expressed mRNA in the absence of chemical substance (yeast gene YHR136C): 1.4 | The level of expressed mRNA in the presence of chemical substance/The level of expressed mRNA in the absence of chemical substance (yeast gene YHR139C): 1.9 | The level of expressed mRNA in the presence of chemical substance/The level of expressed mRNA in the absence of chemical substance (yeast gene YHR142W): 1.2 | The level of expressed mRNA in the presence of chemical substance/The level of expressed mRNA in the absence of chemical substance (yeast gene YHR160C): 1.0 | The level of expressed mRNA in the presence of chemical substance/The level of expressed mRNA in the absence of chemical substance (yeast gene YHR166C): 1.8 | The level of expressed mRNA in the presence of chemical substance/The level of expressed mRNA in the absence of chemical substance (yeast gene YHR205W): 1.0 | The level of expressed mRNA in the presence of chemical substance/The level of expressed mRNA in the absence of chemical substance (yeast gene YIL015W): 0.4 | The level of expressed mRNA in the presence of chemical substance/The level of expressed mRNA in the absence of chemical substance (yeast gene YIL075C): 0.8 | The level of expressed mRNA in the presence of chemical substance/The level of expressed mRNA in the absence of chemical substance (yeast gene YIL123W): 0.5 | The level of expressed mRNA in the presence of chemical substance/The level of expressed mRNA in the absence of chemical substance (yeast gene YIL129C): 0.3 | The level of expressed mRNA in the presence of chemical substance/The level of expressed mRNA in the absence of chemical substance (yeast gene YIL140W): 0.5 | The level of expressed mRNA in the presence of chemical substance/The level of expressed mRNA in the absence of chemical substance (yeast gene YIL142W): 1.1 | The level of expressed mRNA in the presence of chemical substance/The level of expressed mRNA in the absence of chemical substance (yeast gene YIR009W): 1.4 | The level of expressed mRNA in the presence of chemical substance/The level of expressed mRNA in the absence of chemical substance (yeast gene YJL073W): 2.0 | The level of expressed mRNA in the presence of chemical substance/The level of expressed mRNA in the absence of chemical substance (yeast gene YJL089W): 1.6 | The level of expressed mRNA in the presence of chemical substance/The level of expressed mRNA in the absence of chemical substance (yeast gene YJL116C): 3.4
